# Columns and labels:
# Test in all cases: relative viability (nuclei count vs DMSO), 5 days (fraction); higher = more cells survive
# [1] = test system: NCI-H322M
# Summary of the method: (§1)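 Relative viability was taken as the ratio of nuclei in treated wells to nuclei in vehicle wells. Lung cancer cell lines in 1536-well plates received compounds by pin tool one day after seeding, either one drug alone or a fixed anchor-drug dose plus five library-drug doses (not always all listed) in √10 steps. Nuclei were counted on 4× images after 5 days of treatment, and values are medians of duplicate plates.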
# [2] = test system: NCI-H1651
# Summary of the method: as §1
# [3] = test system: LXF-289
# Summary of the method: as §1
# [4] = test system: PC-3 [JPC-3]
# Summary of the method: as §1
# [5] = test system: ChaGo-K-1
# Summary of the method: as §1
# [6] = test system: NCI-H661
# Summary of the method: as §1
# [7] = test system: SK-MES-1
# Summary of the method: as §1
# [8] = test system: HCC-78
# Summary of the method: as §1
# [9] = test system: NCI-H596
# Summary of the method: as §1
# [10] = test system: NCI-H2342
# Summary of the method: as §1
# [11] = test system: UMC-11
# Summary of the method: as §1
# [12] = test system: HCC-15
# Summary of the method: as §1
# [13] = test system: LU99A
# Summary of the method: as §1
# [14] = test system: LC-2-ad
# Summary of the method: as §1
# [15] = test system: NCI-H838
# Summary of the method: as §1
# [16] = test system: BEN
# Summary of the method: as §1
# [17] = test system: NCI-H650
# Summary of the method: as §1
# [18] = test system: NCI-H2087
# Summary of the method: as §1
# [19] = test system: NCI-H358
# Summary of the method: as §1
# [20] = test system: NCI-H1944
# Summary of the method: as §1
# [21] = test system: LK-2
# Summary of the method: as §1
# [22] = test system: NCI-H1666
# Summary of the method: as §1
# [23] = test system: LCLC-97TM1
# Summary of the method: as §1
smiles,measurement,setting,value
NC(=O)Nc1cc(-c2cccc(F)c2)sc1C(=O)N[C@H]1CCCNC1 [AZD7762] + O=C(c1cc(Cc2n[nH]c(=O)c3ccccc23)ccc1F)N1CCN(C(=O)C2CC2)CC1 [Olaparib] (partner 8 µM),relative viability,[1]; first compound 0.01 µM,0.795
same,relative viability,[1]; first compound 0.03162 µM,0.933
same,relative viability,[1]; first compound 0.1 µM,0.85
same,relative viability,[1]; first compound 0.3162 µM,0.627
same,relative viability,[1]; first compound 1 µM,0.354
same,relative viability,[2]; first compound 0.01 µM,0.184
same,relative viability,[2]; first compound 0.03162 µM,0.202
same,relative viability,[2]; first compound 0.1 µM,0.156
same,relative viability,[2]; first compound 0.3162 µM,0.153
same,relative viability,[2]; first compound 1 µM,0.137
same,relative viability,[3]; first compound 0.01 µM,1.11
same,relative viability,[3]; first compound 0.03162 µM,1.18
same,relative viability,[3]; first compound 0.1 µM,1.21
same,relative viability,[3]; first compound 0.3162 µM,1.16
same,relative viability,[3]; first compound 1 µM,1.28
same,relative viability,[4]; first compound 0.01 µM,1.19
same,relative viability,[4]; first compound 0.03162 µM,1.06
same,relative viability,[4]; first compound 0.1 µM,1.12
same,relative viability,[4]; first compound 0.3162 µM,1.05
same,relative viability,[4]; first compound 1 µM,0.634
same,relative viability,[5]; first compound 0.01 µM,0.394
same,relative viability,[5]; first compound 0.03162 µM,0.425
same,relative viability,[5]; first compound 0.1 µM,0.423
same,relative viability,[5]; first compound 0.3162 µM,0.415
same,relative viability,[5]; first compound 1 µM,0.379
same,relative viability,[6]; first compound 0.01 µM,0.798
same,relative viability,[6]; first compound 0.03162 µM,0.779
same,relative viability,[6]; first compound 0.1 µM,0.711
same,relative viability,[6]; first compound 0.3162 µM,0.503
same,relative viability,[6]; first compound 1 µM,0.426
same,relative viability,[7]; first compound 0.01 µM,0.831
same,relative viability,[7]; first compound 0.03162 µM,0.828
same,relative viability,[7]; first compound 0.1 µM,0.506
same,relative viability,[7]; first compound 0.3162 µM,0.247
same,relative viability,[7]; first compound 1 µM,0.189
same,relative viability,[8]; first compound 0.01 µM,0.86
same,relative viability,[8]; first compound 0.03162 µM,1
same,relative viability,[8]; first compound 0.1 µM,0.775
same,relative viability,[8]; first compound 0.3162 µM,0.85
same,relative viability,[8]; first compound 1 µM,0.515
same,relative viability,[9]; first compound 0.01 µM,0.723
same,relative viability,[9]; first compound 0.03162 µM,0.631
same,relative viability,[9]; first compound 0.1 µM,0.609
same,relative viability,[9]; first compound 0.3162 µM,0.552
same,relative viability,[9]; first compound 1 µM,0.478
same,relative viability,[10]; first compound 0.01 µM,0.449
same,relative viability,[10]; first compound 0.03162 µM,0.393
same,relative viability,[10]; first compound 0.1 µM,0.496
same,relative viability,[10]; first compound 0.3162 µM,0.457
same,relative viability,[10]; first compound 1 µM,0.515
same,relative viability,[11]; first compound 0.01 µM,0.819
same,relative viability,[11]; first compound 0.03162 µM,0.342
same,relative viability,[11]; first compound 0.1 µM,0.277
same,relative viability,[11]; first compound 0.3162 µM,0.256
same,relative viability,[11]; first compound 1 µM,0.255
same,relative viability,[12]; first compound 0.01 µM,0.824
same,relative viability,[12]; first compound 0.03162 µM,0.948
same,relative viability,[12]; first compound 0.1 µM,0.898
same,relative viability,[12]; first compound 0.3162 µM,1.04
same,relative viability,[12]; first compound 1 µM,0.983
same,relative viability,[13]; first compound 0.01 µM,0.253
same,relative viability,[13]; first compound 0.03162 µM,0.246
same,relative viability,[13]; first compound 0.1 µM,0.202
same,relative viability,[13]; first compound 0.3162 µM,0.148
same,relative viability,[13]; first compound 1 µM,0.124
same,relative viability,[14]; first compound 0.01 µM,0.818
same,relative viability,[14]; first compound 0.03162 µM,0.772
same,relative viability,[14]; first compound 0.1 µM,0.781
same,relative viability,[14]; first compound 0.3162 µM,0.703
same,relative viability,[14]; first compound 1 µM,0.606
same,relative viability,[15]; first compound 0.01 µM,0.86
same,relative viability,[15]; first compound 0.03162 µM,0.774
same,relative viability,[15]; first compound 0.1 µM,0.744
same,relative viability,[15]; first compound 0.3162 µM,0.493
same,relative viability,[15]; first compound 1 µM,0.169
same,relative viability,[16]; first compound 0.01 µM,1.05
same,relative viability,[16]; first compound 0.03162 µM,1.04
same,relative viability,[16]; first compound 0.1 µM,0.966
same,relative viability,[16]; first compound 0.3162 µM,1.01
same,relative viability,[16]; first compound 1 µM,0.658
same,relative viability,[17]; first compound 0.01 µM,0.417
same,relative viability,[17]; first compound 0.03162 µM,0.49
same,relative viability,[17]; first compound 0.1 µM,0.494
same,relative viability,[17]; first compound 0.3162 µM,0.446
same,relative viability,[17]; first compound 1 µM,0.337
same,relative viability,[18]; first compound 0.01 µM,0.712
same,relative viability,[18]; first compound 0.03162 µM,0.768
same,relative viability,[18]; first compound 0.1 µM,0.806
same,relative viability,[18]; first compound 0.3162 µM,0.858
same,relative viability,[18]; first compound 1 µM,0.583
same,relative viability,[19]; first compound 0.01 µM,0.872
same,relative viability,[19]; first compound 0.03162 µM,0.64
same,relative viability,[19]; first compound 0.1 µM,0.715
same,relative viability,[19]; first compound 0.3162 µM,0.408
same,relative viability,[19]; first compound 1 µM,0.212
same,relative viability,[20]; first compound 0.01 µM,0.46
same,relative viability,[20]; first compound 0.03162 µM,0.448
same,relative viability,[20]; first compound 0.1 µM,0.504
same,relative viability,[20]; first compound 0.3162 µM,0.532
same,relative viability,[20]; first compound 1 µM,0.446
same,relative viability,[21]; first compound 0.01 µM,0.789
same,relative viability,[21]; first compound 0.03162 µM,1
same,relative viability,[21]; first compound 0.1 µM,0.729
same,relative viability,[21]; first compound 0.3162 µM,0.623
same,relative viability,[21]; first compound 1 µM,0.435
same,relative viability,[22]; first compound 0.01 µM,0.85
same,relative viability,[22]; first compound 0.03162 µM,0.973
same,relative viability,[22]; first compound 0.1 µM,1.06
same,relative viability,[22]; first compound 0.3162 µM,0.968
same,relative viability,[22]; first compound 1 µM,0.814
same,relative viability,[23]; first compound 0.01 µM,0.493
same,relative viability,[23]; first compound 0.03162 µM,0.523
same,relative viability,[23]; first compound 0.1 µM,0.438
same,relative viability,[23]; first compound 0.3162 µM,0.552
same,relative viability,[23]; first compound 1 µM,0.198

# Source: the supplement of paper PMC10307832
